Reference: patent publication EP0041644B1 (priority 1980, dated 1981)

Assays:
[1] = system: L1210 Leukemia; assay: L1210 Leukemia - Test 2; type: in vivo, mice
[2] = system: L1210 Leukemia; assay: L1210 Leukemia - Test 3 (vehicle comparison); type: in vivo, mice; conditions: for Effect MST % T/C / MST Days: Day 1 only
[3] = system: B16 Melanoma; assay: B16 Melanoma - Test 2 (ip tumor brei); type: in vivo, mice; conditions: QD +9
[4] = system: B16 Melanoma; assay: B16 Melanoma - Test 3 (sc trocar fragments); type: in vivo, mice
[5] = system: Lewis Lung Carcinoma; assay: Lewis Lung Carcinoma - Test 1 (ip, delayed therapy); type: in vivo, mice
[6] = water

In the case of `[NH2][Pt]1([NH2])[O]C(=O)C([O-])C(=O)[O]1.[Na+]` [Example 3, 2-Hydroxymalonato diammine platinum (II), sodium salt], the “Effect MST % T/C” value ([1]; 4 mg/kg/inj ip, qd 1→9) is reported as 100 % T/C, the “MST Days” value ([1]; 4 mg/kg/inj ip, qd 1→9) is reported as 7.0 days and the “Effect MST % T/C” value ([1]; 8 mg/kg/inj ip, qd 1→9) is reported as 114 % T/C. The “MST Days” value ([1]; 8 mg/kg/inj ip, qd 1→9) was 8.0 days, the “Effect MST % T/C” value ([1]; 16 mg/kg/inj ip, qd 1→9) was 157 % T/C and the “MST Days” value ([1]; 16 mg/kg/inj ip, qd 1→9) was 11.0 days. The “Effect MST % T/C” value ([1]; 20 mg/kg/inj iv, d.1, 5&9) was 100 % T/C, the “MST Days” value ([1]; 20 mg/kg/inj iv, d.1, 5&9) was 7.0 days and the “Effect MST % T/C” value ([1]; 24 mg/kg/inj ip, qd 1→9) was 207 % T/C. For the same molecule, the “MST Days” value ([1]; 24 mg/kg/inj ip, qd 1→9) was 14.5 days, the “Effect MST % T/C” value ([1]; 40 mg/kg/inj ip, d.1) was 114 % T/C and the “MST Days” value ([1]; 40 mg/kg/inj ip, d.1) was 8.0 days. For the same molecule, the “Effect MST % T/C” value ([1]; 40 mg/kg/inj iv, d.1) was 100 % T/C, the “MST Days” value ([1]; 40 mg/kg/inj iv, d.1) was 7.0 days and the “Effect MST % T/C” value ([1]; 40 mg/kg/inj iv, d.1, 5&9) was 107 % T/C. For the same molecule, the “MST Days” value ([1]; 40 mg/kg/inj iv, d.1, 5&9) was 7.5 days, the “Effect MST % T/C” value ([1]; 60 mg/kg/inj ip, d.1) was 121 % T/C and the “MST Days” value ([1]; 60 mg/kg/inj ip, d.1) was 8.5 days. The “Effect MST % T/C” value ([1]; 60 mg/kg/inj iv, d.1) was 100 % T/C, the “MST Days” value ([1]; 60 mg/kg/inj iv, d.1) was 7.0 days and the “Effect MST % T/C” value ([1]; 60 mg/kg/inj iv, d.1, 5&9) was 143 % T/C. For the same molecule, the “MST Days” value ([1]; 60 mg/kg/inj iv, d.1, 5&9) was 10.0 days, the “Effect MST % T/C” value ([1]; 80 mg/kg/inj iv, d.1, 5&9) was 100 % T/C and the “MST Days” value ([1]; 80 mg/kg/inj iv, d.1, 5&9) was 7.0 days. For the same molecule, the “Effect MST % T/C” value ([1]; 90 mg/kg/inj ip, d.1) was 143 % T/C, the “MST Days” value ([1]; 90 mg/kg/inj ip, d.1) was 10.0 days and the “Effect MST % T/C” value ([1]; 90 mg/kg/inj iv, d.1) was 107 % T/C. The “MST Days” value ([1]; 90 mg/kg/inj iv, d.1) was 7.5 days, the “Effect MST % T/C” value ([1]; 120 mg/kg/inj ip, d.1) was 136 % T/C and the “MST Days” value ([1]; 120 mg/kg/inj ip, d.1) was 9.5 days. The “Effect MST % T/C” value ([1]; 120 mg/kg/inj iv, d.1) was 100 % T/C, the “MST Days” value ([1]; 120 mg/kg/inj iv, d.1) was 7.0 days and the “maximum T/C” value ([1]; iv, multi-dose regimen) was 143%. The “maximum T/C” value ([1]; multi-dose therapy ip (qd 1→9)) was 207-214%, the “maximum T/C” value ([1]; single ip doses, ip L1210) was 143% and the “Effect MST % T/C” value ([2]; 10 mg/kg ip, vehicle H2O) was 114 % T/C. The “MST Days” value ([2]; 10 mg/kg ip, vehicle H2O) was 8.0 days, the “Effect MST % T/C” value ([2]; 10 mg/kg ip, vehicle Saline) was 100 % T/C and the “MST Days” value ([2]; 10 mg/kg ip, vehicle Saline) was 7.0 days. For the same molecule, the “Effect MST % T/C” value ([2]; 20 mg/kg ip, vehicle H2O) was 143 % T/C, the “MST Days” value ([2]; 20 mg/kg ip, vehicle H2O) was 10.0 days and the “Effect MST % T/C” value ([2]; 20 mg/kg ip, vehicle Saline) was 100 % T/C. The “MST Days” value ([2]; 20 mg/kg ip, vehicle Saline) was 7.0 days, the “Effect MST % T/C” value ([2]; 40 mg/kg ip, vehicle H2O) was 129 % T/C and the “MST Days” value ([2]; 40 mg/kg ip, vehicle H2O) was 9.0 days. For the same molecule, the “Effect MST % T/C” value ([2]; 40 mg/kg ip, vehicle Saline) was 114 % T/C, the “MST Days” value ([2]; 40 mg/kg ip, vehicle Saline) was 8.0 days and the “Effect MST % T/C” value ([2]; 60 mg/kg ip, vehicle H2O) was 143 % T/C. For the same molecule, the “MST Days” value ([2]; 60 mg/kg ip, vehicle H2O) was 10.0 days, the “Effect MST % T/C” value ([2]; 60 mg/kg ip, vehicle Saline) was 114 % T/C and the “MST Days” value ([2]; 60 mg/kg ip, vehicle Saline) was 8.0 days. For the same molecule, the “Effect MST % T/C” value ([2]; 80 mg/kg ip, vehicle H2O) was 143 % T/C, the “MST Days” value ([2]; 80 mg/kg ip, vehicle H2O) was 10.0 days and the “Effect MST % T/C” value ([2]; 80 mg/kg ip, vehicle Saline) was 143 % T/C. The “MST Days” value ([2]; 80 mg/kg ip, vehicle Saline) was 10.0 days, the “Effect MST % T/C” value ([2]; 100 mg/kg ip, vehicle H2O) was 143 % T/C and the “MST Days” value ([2]; 100 mg/kg ip, vehicle H2O) was 10.0 days. The “Effect MST % T/C” value ([2]; 100 mg/kg ip, vehicle Saline) was 129 % T/C, the “MST Days” value ([2]; 100 mg/kg ip, vehicle Saline) was 9.0 days and the “Maximum increase in median lifespan (T/C)” value ([2]; single dose ip, saline and water as vehicles) was 143%. For the same molecule, the “Average Weight Change” value ([3]; 2 mg/kg/day ip) was -1.5 g, the “Effect MST % T/C” value ([3]; 2 mg/kg/day ip) was 160 % T/C and the “MST Days” value ([3]; 2 mg/kg/day ip) was 33.0 days. For the same molecule, the “Average Weight Change” value ([3]; 4 mg/kg/day ip) was -2.8 g, the “Effect MST % T/C” value ([3]; 4 mg/kg/day ip) was 168 % T/C and the “MST Days” value ([3]; 4 mg/kg/day ip) was 34.5 days. For the same molecule, the “Average Weight Change” value ([3]; 8 mg/kg/day ip) was -3.2 g, the “Effect MST % T/C” value ([3]; 8 mg/kg/day ip) was 163 % T/C and the “Average Weight Change” value ([3]; 16 mg/kg/day ip) was -2.9 g. The “Effect MST % T/C” value ([3]; 16 mg/kg/day ip) was 185 % T/C, the “MST Days” value ([3]; 16 mg/kg/day ip) was 38.0 days and the “Survivors Day 10 (60)” value ([3]; Day 10, 8 mg/kg/day ip) was 9/10. For the same molecule, the “Survivors Day 10 (60)” value ([3]; Day 60 (figure in parentheses), 16 mg/kg/day ip) was 1, the “Effect MST %TC” value ([4]; 8 mg/kg/inj ip, qd 1→9) was 102 %TC and the “MST Days” value ([4]; 8 mg/kg/inj ip, qd 1→9) was 31.0 days. For the same molecule, the “Effect MST %TC” value ([4]; 12 mg/kg/inj ip, qd 1→9) was 92 %TC, the “MST Days” value ([4]; 12 mg/kg/inj ip, qd 1→9) was 28.0 days and the “Effect MST %TC” value ([4]; 16 mg/kg/inj ip, qd 1→9) was 125 %TC. For the same molecule, the “MST Days” value ([4]; 16 mg/kg/inj ip, qd 1→9) was 38.0 days, the “Effect MST %TC” value ([4]; 20 mg/kg/inj iv, d.1, 5&9) was 93 %TC and the “MST Days” value ([4]; 20 mg/kg/inj iv, d.1, 5&9) was 28.5 days. The “Effect MST %TC” value ([4]; 24 mg/kg/inj ip, qd 1→9) was “TOX”, the “MST Days” value ([4]; 24 mg/kg/inj ip, qd 1→9) was “TOX” and the “Effect MST %TC” value ([4]; 40 mg/kg/inj iv, d.1, 5&9) was 108 %TC. For the same molecule, the “MST Days” value ([4]; 40 mg/kg/inj iv, d.1, 5&9) was 33.0 days, the “Effect MST %TC” value ([4]; 60 mg/kg/inj iv, d.1, 5&9) was 108 %TC and the “MST Days” value ([4]; 60 mg/kg/inj iv, d.1, 5&9) was 33.0 days. The “Effect MST %TC” value ([4]; 80 mg/kg/inj iv, d.1, 5&9) was “TOX”, the “MST Days” value ([4]; 80 mg/kg/inj iv, d.1, 5&9) was “TOX” and the “Effect MST %TC” value ([4]; 100 mg/kg/inj iv, d.1, 5&9) was “TOX”. The “MST Days” value ([4]; 100 mg/kg/inj iv, d.1, 5&9) was “TOX”, the T/C ([4]; given ip, sc-implanted B16 melanoma) was 125% and the “maximum T/C” value ([4]; given iv, sc-implanted B16 melanoma) was “not active”. For the same molecule, the “Effect MST %TC” value ([5]; 4 mg/kg/inj ip, qd 5→13) was 120 %TC, the “MST Days” value ([5]; 4 mg/kg/inj ip, qd 5→13) was 15.0 days and the “Effect MST %TC” value ([5]; 8 mg/kg/inj ip, qd 5→13) was 140 %TC. For the same molecule, the “MST Days” value ([5]; 8 mg/kg/inj ip, qd 5→13) was 17.5 days, the “Effect MST %TC” value ([5]; 12 mg/kg/inj ip, qd 5→13) was 148 %TC and the “MST Days” value ([5]; 12 mg/kg/inj ip, qd 5→13) was 18.5 days. The “Effect MST %TC” value ([5]; 16 mg/kg/inj ip, qd 5→13) was 160 %TC, the “MST Days” value ([5]; 16 mg/kg/inj ip, qd 5→13) was 20.0 days and the “Effect MST %TC” value ([5]; 20 mg/kg/inj ip, d. 5,9&13) was 124 %TC. The “MST Days” value ([5]; 20 mg/kg/inj ip, d. 5,9&13) was 15.5 days, the “Effect MST %TC” value ([5]; 20 mg/kg/inj iv, d. 5,9&13) was 100 %TC and the “MST Days” value ([5]; 20 mg/kg/inj iv, d. 5,9&13) was 12.5 days. The “Effect MST %TC” value ([5]; 40 mg/kg/inj ip, d. 5,9&13) was 148 %TC, the “MST Days” value ([5]; 40 mg/kg/inj ip, d. 5,9&13) was 18.5 days and the “Effect MST %TC” value ([5]; 40 mg/kg/inj iv, d. 5,9&13) was 108 %TC. The “MST Days” value ([5]; 40 mg/kg/inj iv, d. 5,9&13) was 13.5 days, the “Effect MST %TC” value ([5]; 60 mg/kg/inj ip, d. 5,9&13) was 196 %TC and the “MST Days” value ([5]; 60 mg/kg/inj ip, d. 5,9&13) was 24.5 days. The “Effect MST %TC” value ([5]; 60 mg/kg/inj iv, d. 5,9&13) was 132 %TC, the “MST Days” value ([5]; 60 mg/kg/inj iv, d. 5,9&13) was 16.5 days and the “Effect MST %TC” value ([5]; 80 mg/kg/inj ip, d. 5,9&13) was 268 %TC. The “MST Days” value ([5]; 80 mg/kg/inj ip, d. 5,9&13) was 33.5 days, the “Effect MST %TC” value ([5]; 80 mg/kg/inj iv, d. 5,9&13) was 148 %TC and the “MST Days” value ([5]; 80 mg/kg/inj iv, d. 5,9&13) was 18.5 days. For the same molecule, the “long-term survivors (day 48)” value ([5]; given ip, at maximum T/C) was 2 to 6, the “maximum T/C” value ([5]; given ip, therapy from day 5) was 268% and the T/C ([5]; given iv, therapy from day 5) was 148%. The “Solubility in H2O at 22-25°C” value [6] was > 100 mg/mL.
